Test results published in ChEMBL document CHEMBL4257571, “Discovery of 5-(2-chloro-4'-(1H-imidazol-1-yl)-[1,1'-biphenyl]-4-yl)-1H-tetrazole as potent and orally efficacious S-nitrosoglutathione reductase (GSNOR) inhibitors for the potential treatment of COPD” (Bioorg Med Chem Lett, 2018).
Each block holds one compound with its values, some of them ahead of it.

Experiments:
[1] = biological target: T1, Alcohol dehydrogenase class-3 (Homo sapiens, UniProt P11766); assay: Inhibition of human GSNOR assessed as reduction in NADH consumption after 3 mins by spectrophotometric analysis
Target sequence in this assay (P11766 whole entry): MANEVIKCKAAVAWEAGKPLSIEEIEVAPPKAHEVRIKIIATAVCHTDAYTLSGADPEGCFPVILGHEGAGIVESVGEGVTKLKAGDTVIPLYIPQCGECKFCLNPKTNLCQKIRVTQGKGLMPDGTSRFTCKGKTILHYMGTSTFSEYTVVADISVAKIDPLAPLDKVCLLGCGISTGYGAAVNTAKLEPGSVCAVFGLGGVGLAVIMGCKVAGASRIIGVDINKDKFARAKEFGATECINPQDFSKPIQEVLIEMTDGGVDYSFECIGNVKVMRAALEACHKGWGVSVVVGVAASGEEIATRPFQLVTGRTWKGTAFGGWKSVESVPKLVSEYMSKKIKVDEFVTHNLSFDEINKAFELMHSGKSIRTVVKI

CYP1A2 = biological target: T2, CYP1A2 (Homo sapiens, UniProt P05177); assay: (§1) Inhibition of CYP1A2 in human liver microsomes at 10 uM after 20 mins in presence of NADPH by LC/MS/MS analysis relative to control; assay type: ADME; conditions: liver microsomes
T2 sequence (P05177 whole entry): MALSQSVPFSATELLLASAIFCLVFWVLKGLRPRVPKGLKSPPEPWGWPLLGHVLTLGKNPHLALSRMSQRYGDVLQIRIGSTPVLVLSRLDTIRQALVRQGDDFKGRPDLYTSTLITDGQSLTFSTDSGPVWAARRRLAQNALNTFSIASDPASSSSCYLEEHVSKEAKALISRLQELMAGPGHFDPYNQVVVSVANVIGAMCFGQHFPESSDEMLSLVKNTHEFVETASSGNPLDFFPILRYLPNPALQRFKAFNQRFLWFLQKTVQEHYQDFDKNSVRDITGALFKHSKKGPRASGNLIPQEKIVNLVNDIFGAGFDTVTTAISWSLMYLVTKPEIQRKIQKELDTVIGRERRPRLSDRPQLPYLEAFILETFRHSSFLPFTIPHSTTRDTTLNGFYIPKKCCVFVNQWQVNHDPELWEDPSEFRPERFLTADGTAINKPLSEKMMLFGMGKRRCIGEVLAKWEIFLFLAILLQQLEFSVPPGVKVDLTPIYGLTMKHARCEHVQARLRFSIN

CYP2C19 = CYP2C19 (Homo sapiens, UniProt P33261); assay: Inhibition of CYP2C19 in human liver microsomes at 10 uM after 40 mins in presence of NADPH by LC/MS/MS analysis relative to control; assay type: ADME
[2] = Metabolic stability of rat liver microsomes assessed as parent compound remaining at 0.1 uM after 60 mins in presence of NADPH by LC/MS/MS analysis; assay type: ADME, microsome; conditions: read-out: Stability
[3] = Metabolic stability of mouse liver microsomes assessed as parent compound remaining at 0.1 uM after 60 mins in presence of NADPH by LC/MS/MS analysis; assay type: ADME, microsome; conditions: read-out: Stability
[4] = Metabolic stability of human liver microsomes assessed as parent compound remaining at 0.1 uM after 60 mins in presence of NADPH by LC/MS/MS analysis; assay type: ADME, microsome; conditions: read-out: Stability
CYP2D6 = CYP2D6 (Homo sapiens, UniProt P10635); assay: (§2) Inhibition of CYP2D6 in human liver microsomes at 10 uM after 20 mins in presence of NADPH by LC/MS/MS analysis relative to control; assay type: ADME; conditions: liver microsomes
CYP3A4 = CYP3A4 (Homo sapiens, UniProt P08684); assay: (§3) Inhibition of CYP3A4 in human liver microsomes at 10 uM after 20 mins in presence of NADPH by LC/MS/MS analysis relative to control; assay type: ADME; conditions: liver microsomes
CYP2C9 = CYP2C9 (Homo sapiens, UniProt P11712); assay: Inhibition of CYP2C9 in human liver microsomes at 10 uM after 20 mins in presence of NADPH by LC/MS/MS analysis relative to control; assay type: ADME
[5] = biological target: T1, Alcohol dehydrogenase class-3; assay: Inhibition of human GSNOR assessed as reduction in NADH consumption at 10 uM after 3 mins by spectrophotometric analysis relative to control
Target sequence in this assay (P11766 2-374 limits assumed): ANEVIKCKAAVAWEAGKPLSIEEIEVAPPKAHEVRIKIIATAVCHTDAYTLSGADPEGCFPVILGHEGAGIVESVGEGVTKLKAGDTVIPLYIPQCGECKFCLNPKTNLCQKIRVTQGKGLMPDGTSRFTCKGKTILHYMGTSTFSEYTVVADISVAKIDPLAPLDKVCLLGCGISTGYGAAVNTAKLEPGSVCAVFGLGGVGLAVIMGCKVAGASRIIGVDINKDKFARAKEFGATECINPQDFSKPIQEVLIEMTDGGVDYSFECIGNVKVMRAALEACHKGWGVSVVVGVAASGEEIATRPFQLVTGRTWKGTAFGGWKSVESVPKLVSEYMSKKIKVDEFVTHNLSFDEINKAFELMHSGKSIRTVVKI

Cytochrome P450 1A2 = biological target: T3, Cytochrome P450 1A2 (Homo sapiens, UniProt P05177); assay: as §1; assay type: ADME; conditions: microsomes, 20 min, 10 µM
T3 sequence (P05177 whole entry): T2 sequence (P05177 whole entry)

Cytochrome P450 2D6 = Cytochrome P450 2D6 (Homo sapiens, UniProt P10635); assay: as §2; assay type: ADME; conditions: microsomes, 20 min, 10 µM
Cytochrome P450 3A4 = Cytochrome P450 3A4 (Homo sapiens, UniProt P08684); assay: as §3; assay type: ADME; conditions: microsomes, 20 min, 10 µM
[6] = Tmax in C57/BL6 mouse at 30 mg/kg, po; assay type: ADME, organism-based; conditions: in vivo
[7] = Half life in C57/BL6 mouse at 30 mg/kg, po; assay type: ADME, organism-based; conditions: in vivo
[8] = Clearance in C57/BL6 mouse at 3 mg/kg, iv; assay type: ADME, organism-based; conditions: in vivo
[9] = Volume of distribution in C57/BL6 mouse at 3 mg/kg, iv; assay type: ADME, organism-based; conditions: in vivo, read-out: Vz
[10] = AUC (0 to 24 hrs) in C57/BL6 mouse at 30 mg/kg, po; assay type: ADME, organism-based; set-up: time < 24 hr, dose 30 mg/kg, route oral; conditions: in vivo
[11] = Ratio of drug uptake in lung to plasma of C57/BL6 mouse at 3 mg/kg, iv or 30 mg/kg, po; assay type: ADME, organism-based
[12] = Oral bioavailability in C57/BL6 mouse at 30 mg/kg; assay type: ADME, organism-based; conditions: in vivo
[13] = Half life in C57/BL6 mouse at 3 mg/kg, iv; assay type: ADME, organism-based; conditions: in vivo
[14] = Cmax in C57/BL6 mouse at 30 mg/kg, po; assay type: ADME, organism-based; set-up: dose 30 mg/kg, route oral; conditions: in vivo

Chain of CYP2D6 (P10635 whole entry): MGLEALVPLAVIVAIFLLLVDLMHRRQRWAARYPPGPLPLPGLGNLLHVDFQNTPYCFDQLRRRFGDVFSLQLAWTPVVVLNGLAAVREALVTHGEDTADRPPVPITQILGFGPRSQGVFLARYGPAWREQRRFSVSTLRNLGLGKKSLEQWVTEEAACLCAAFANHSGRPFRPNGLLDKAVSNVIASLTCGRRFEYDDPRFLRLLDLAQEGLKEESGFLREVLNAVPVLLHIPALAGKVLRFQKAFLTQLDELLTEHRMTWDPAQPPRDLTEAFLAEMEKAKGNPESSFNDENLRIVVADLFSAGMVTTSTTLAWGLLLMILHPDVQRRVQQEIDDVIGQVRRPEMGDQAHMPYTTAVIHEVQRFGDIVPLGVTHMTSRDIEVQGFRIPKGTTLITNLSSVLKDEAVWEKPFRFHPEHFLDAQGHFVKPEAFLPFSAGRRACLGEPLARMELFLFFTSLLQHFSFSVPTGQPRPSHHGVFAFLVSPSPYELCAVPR
Chain of CYP2C19 (P33261 whole entry): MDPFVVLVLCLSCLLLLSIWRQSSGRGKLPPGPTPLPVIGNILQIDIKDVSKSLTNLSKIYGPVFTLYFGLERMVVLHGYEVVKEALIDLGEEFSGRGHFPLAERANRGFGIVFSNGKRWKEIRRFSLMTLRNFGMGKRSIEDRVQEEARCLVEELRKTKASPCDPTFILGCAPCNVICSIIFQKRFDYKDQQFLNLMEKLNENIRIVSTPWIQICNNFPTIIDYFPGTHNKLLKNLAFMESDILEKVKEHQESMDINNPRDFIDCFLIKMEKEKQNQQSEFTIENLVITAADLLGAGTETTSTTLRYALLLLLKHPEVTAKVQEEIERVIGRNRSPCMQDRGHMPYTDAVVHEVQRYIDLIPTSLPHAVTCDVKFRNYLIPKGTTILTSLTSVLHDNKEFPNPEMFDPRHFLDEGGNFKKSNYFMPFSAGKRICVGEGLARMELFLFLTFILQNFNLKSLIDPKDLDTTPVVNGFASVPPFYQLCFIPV
Chain of CYP3A4 (P08684 whole entry): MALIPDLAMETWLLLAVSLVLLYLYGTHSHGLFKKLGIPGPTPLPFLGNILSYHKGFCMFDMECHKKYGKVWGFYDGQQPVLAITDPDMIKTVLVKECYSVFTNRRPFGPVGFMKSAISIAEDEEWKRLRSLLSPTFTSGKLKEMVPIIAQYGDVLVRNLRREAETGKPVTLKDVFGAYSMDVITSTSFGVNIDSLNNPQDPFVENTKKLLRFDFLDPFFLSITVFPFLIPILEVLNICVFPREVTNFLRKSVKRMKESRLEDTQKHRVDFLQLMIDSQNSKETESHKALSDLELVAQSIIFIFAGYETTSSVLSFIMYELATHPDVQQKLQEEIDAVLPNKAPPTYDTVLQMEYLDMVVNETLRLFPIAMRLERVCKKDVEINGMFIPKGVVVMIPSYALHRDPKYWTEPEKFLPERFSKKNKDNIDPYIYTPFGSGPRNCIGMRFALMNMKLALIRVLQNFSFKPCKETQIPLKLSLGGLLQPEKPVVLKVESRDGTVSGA
Chain of CYP2C9 (P11712 whole entry): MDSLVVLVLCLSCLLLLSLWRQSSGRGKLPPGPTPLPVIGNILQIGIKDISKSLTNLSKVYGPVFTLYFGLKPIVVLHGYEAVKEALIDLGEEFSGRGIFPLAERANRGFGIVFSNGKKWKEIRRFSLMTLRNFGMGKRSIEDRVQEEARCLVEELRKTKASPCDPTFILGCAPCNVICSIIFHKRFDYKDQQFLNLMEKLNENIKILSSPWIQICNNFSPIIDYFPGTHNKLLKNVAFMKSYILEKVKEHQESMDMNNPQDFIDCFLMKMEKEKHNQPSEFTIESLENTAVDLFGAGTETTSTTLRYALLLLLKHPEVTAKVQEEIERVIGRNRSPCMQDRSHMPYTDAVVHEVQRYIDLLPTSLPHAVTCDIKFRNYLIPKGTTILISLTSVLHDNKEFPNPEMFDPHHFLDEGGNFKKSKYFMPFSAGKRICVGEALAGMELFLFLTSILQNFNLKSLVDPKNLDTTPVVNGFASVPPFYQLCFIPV
Chain of Cytochrome P450 2D6 (P10635 whole entry): as the sequence (P10635 whole entry) above
Chain of Cytochrome P450 3A4 (P08684 whole entry): as the sequence (P08684 whole entry) above

Compound: Cc1cc(-c2nnn[nH]2)ccc1-c1ncc(-n2ccnc2)cc1Cl
IC50 [1]: 935 nM

Compound: O=C(O)c1ccc(-c2ccc(-n3ccnc3)cc2)cc1
IC50 [1]: 62 nM

Compound: O=C(O)c1ccc(-c2ccc(O)cc2)cc1
inhibition [5]: 25%

Compound: Clc1cc(-c2nnn[nH]2)ccc1-c1ccc(-n2ccnc2)cn1
IC50 [1]: 308 nM

Compound: Clc1cc(-c2nn[nH]n2)ccc1-c1ccc(-n2cnnn2)cc1
inhibition [5]: 36%

Compound: NC(=O)c1ccc(-c2ccc(-n3ccnc3)cc2)cc1
inhibition [5]: 60%

Compound: N#Cc1ccc(-c2ccc(-c3nn[nH]n3)cc2)cc1
inhibition [5]: 27%

Compound: c1cn(-c2cnc(-c3ccc(-c4nnn[nH]4)cc3)c(C3CCCCC3)c2)cn1
IC50 [1]: 74 nM

Compound: O=C(O)c1ccc(-c2ccc(-n3ccnc3)cn2)cc1
IC50 [1]: 214 nM

Further lines, results first:

IC50 [1]: 37 nM
Compound: Cc1nccn1-c1ccc(-c2ccc(-c3nnn[nH]3)cc2Cl)cc1

inhibition at 20 min, 10 µM (CYP1A2): 1%
inhibition at 40 min, 10 µM (CYP2C19): 69%
IC50 [1]: 17 nM
remaining at 1 h, 0.1 µM [2]: 50%
remaining at 1 h, 0.1 µM [3]: 17%
remaining at 1 h, 0.1 µM [4]: 94%
inhibition at 20 min, 10 µM (CYP2D6): 9%
inhibition at 20 min, 10 µM (CYP3A4): 17%
inhibition at 20 min, 10 µM (CYP2C9): 61%
Compound: Cc1cc(-n2ccnc2)cnc1-c1ccc(-c2nnn[nH]2)cc1

IC50 [1]: 44 nM
Compound: Cc1cc(-c2nnn[nH]2)ccc1-c1ccc(-n2ccnc2)cn1

inhibition at 20 min, 10 µM (CYP1A2): 74%
inhibition at 40 min, 10 µM (CYP2C19): 69%
IC50 [1]: 22 nM
remaining at 1 h, 0.1 µM [2]: 58%
remaining at 1 h, 0.1 µM [3]: 31%
remaining at 1 h, 0.1 µM [4]: 66%
inhibition at 20 min, 10 µM (CYP2D6): 73%
inhibition at 20 min, 10 µM (CYP3A4): 54%
inhibition at 20 min, 10 µM (CYP2C9): 77%
Compound: c1cn(-c2ccc(-c3ccc(-c4nn[nH]n4)cc3)cc2)cn1

inhibition at 20 min, 10 µM (CYP1A2): 47%
inhibition at 40 min, 10 µM (CYP2C19): 76%
IC50 [1]: 12 nM
inhibition at 20 min, 10 µM (CYP2D6): 63%
inhibition at 20 min, 10 µM (CYP3A4): 43%
inhibition at 20 min, 10 µM (CYP2C9): 83%
Compound: Cc1cc(-n2ccnc2)ccc1-c1ccc(-c2nnn[nH]2)cc1Cl

inhibition (INH) (Cytochrome P450 1A2): Not Active
inhibition at 40 min, 10 µM (CYP2C19): 42%
IC50 [1]: 27 nM
inhibition (INH) (Cytochrome P450 2D6): Not Active
inhibition (INH) (Cytochrome P450 3A4): Not Active
inhibition at 20 min, 10 µM (CYP2C9): 50%
Compound: Fc1cc(-c2nnn[nH]2)ccc1-c1ncc(-n2ccnc2)cc1Cl

IC50 [1]: 29 nM
Compound: Cc1cc(C(=O)O)ccc1-c1ccc(-n2ccnc2)cc1

IC50 [1]: 32 nM
Compound: c1cn(-c2ccc(-c3ccc(-c4nnn[nH]4)cc3)nc2)cn1

IC50 [1]: 22 nM
Compound: Clc1cc(-n2ccnc2)ccc1-c1ccc(-c2nnn[nH]2)cc1

IC50 [1]: 39 nM
Compound: FC(F)(F)c1cc(-c2nnn[nH]2)ccc1-c1ccc(-n2ccnc2)cc1

inhibition at 20 min, 10 µM (CYP1A2): 39%
inhibition at 40 min, 10 µM (CYP2C19): 84%
IC50 [1]: 14 nM
remaining at 1 h, 0.1 µM [2]: 68%
remaining at 1 h, 0.1 µM [3]: 44%
remaining at 1 h, 0.1 µM [4]: 99%
inhibition at 20 min, 10 µM (CYP2D6): 44%
inhibition at 20 min, 10 µM (CYP3A4): 26%
inhibition at 20 min, 10 µM (CYP2C9): 86%
Compound: Cc1cc(-n2ccnc2)ccc1-c1ccc(-c2nnn[nH]2)cc1

Tmax [6]: 0.5 h
inhibition at 20 min, 10 µM (CYP1A2): -15%
half-life [7]: 5.3 h
inhibition at 40 min, 10 µM (CYP2C19): 45%
clearance [8]: 17 mL/min/kg
Vd [9]: 2.8 L/kg
AUC(0-t) at 24 h [10]: 14200 ng·h/mL
Kp [11]: 0.62
IC50 [1]: 14 nM
bioavailability [12]: 49%
remaining at 1 h, 0.1 µM [2]: 53%
remaining at 1 h, 0.1 µM [3]: 42%
remaining at 1 h, 0.1 µM [4]: 100%
half-life [13]: 1.9 h
inhibition at 20 min, 10 µM (CYP2D6): 12%
inhibition at 20 min, 10 µM (CYP3A4): 19%
Cmax [14]: 2560 ng/mL
inhibition at 20 min, 10 µM (CYP2C9): 60%
Compound: Cc1cc(-n2ccnc2)cnc1-c1ccc(-c2nnn[nH]2)cc1F
